Consider 39 compounds from US11479556B1, “Bifunctional compounds for degrading BTK via ubiquitin proteosome pathway” (NURIX THERAPEUTICS, INC., priority 2018, dated 2022).

Where only a bound is given, the exact number is not on record here.

For orientation: DC50 means the midpoint of the concentration-degradation curve.

In the test the target is T1, BTK (Homo sapiens, UniProt Q06187).
T1 construct: endogenous in cells; host or cells: TMD8 cells
T1 sequence (Q06187 whole entry): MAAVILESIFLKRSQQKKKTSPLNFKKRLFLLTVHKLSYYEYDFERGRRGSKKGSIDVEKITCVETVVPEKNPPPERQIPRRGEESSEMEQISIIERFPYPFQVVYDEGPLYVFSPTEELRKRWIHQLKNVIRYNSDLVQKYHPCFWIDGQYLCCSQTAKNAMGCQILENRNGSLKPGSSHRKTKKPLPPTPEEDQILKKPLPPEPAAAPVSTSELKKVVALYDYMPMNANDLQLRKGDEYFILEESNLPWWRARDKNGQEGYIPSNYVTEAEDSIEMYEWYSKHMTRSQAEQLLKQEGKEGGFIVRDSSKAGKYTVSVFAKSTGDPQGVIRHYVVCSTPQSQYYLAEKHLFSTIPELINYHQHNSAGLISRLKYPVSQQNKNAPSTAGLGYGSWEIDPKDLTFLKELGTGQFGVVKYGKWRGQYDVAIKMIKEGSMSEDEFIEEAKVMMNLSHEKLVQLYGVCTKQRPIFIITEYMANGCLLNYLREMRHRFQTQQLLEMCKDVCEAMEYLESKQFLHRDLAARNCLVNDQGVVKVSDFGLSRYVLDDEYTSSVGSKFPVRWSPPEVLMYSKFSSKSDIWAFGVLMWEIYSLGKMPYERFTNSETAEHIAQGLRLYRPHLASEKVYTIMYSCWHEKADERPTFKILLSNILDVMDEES
In words: Cellular BTK HTRF assay (BTK degradation) in TMD8 cells. Format: cell-based. The following applies: four hours incubation, Total-BTK HTRF relative to DMSO-treated cells. As for the experimental part: Example 66: BTK Degradation Assay
TMD8 cells were obtained from Tokyo Medical and Dental University and were grown in alpha-MEM (Fisher 12571063) supplemented with 10% heat-inactivated FBS (Corning Premium Fetal Bovine Serum from Fisher, MT35015CV).
Compounds of the present invention were added to 50,000 TMD8 cells in round-bottom 96 well plates with a final DMSO concentration of […] and were incubated at 37° C. 5% CO2 for four hours. BTK levels were determined using Cisbio Total-BTK HTRF ([…] Time-Resolved Fluorescence) kit (63ADK064PEG) according to manufacturer's protocol. Briefly, cells were incubated in 1× supplied lysis buffer for 30 minutes. In an opaque white low volume 96 well plate (Cisbio, 66PL96005), cell lysate was combined with two different specific BTK antibodies, one conjugated with Eu^3+-Cryptate FRET donor and one conjugated with d2 FRET acceptor. Assay controls include wells containing cell lysate with only the Eu^3+-Cryptate FRET donor antibody and wells containing both HTRF antibodies and lysis buffer without cells or control lysate provided by Cisbio. HTRF ratio was calculated as (acceptor signal at 665 nm/donor signal at 620 nm)×10^4. Background HTRF levels were determined from the control well containing the donor, but no acceptor, antibody. Background HTRF levels were subtracted from all samples. Readouts were reported as HTRF levels relative to HTRF levels of DMSO-treated cells. Four-parameter non-linear regressions were performed in GraphPad Prism 7.02 to obtain DC50 values. DC50 values are provided in Table 3, wherein A<5.0 nM, 5.0 nM≤B≤15 nM, and 15 nM<C.
In general terms: TR-FRET usually uses a lanthanide donor and a delayed reading to cut background.
In turn, `CN1CCN([C@@H]2CCCN(c3cnc(C(N)=O)c(Nc4ccc(C5CCN(C[C@H]6CCCN(c7ccc8c(c7)C(=O)N(C7CCC(=O)NC7=O)C8=O)C6)CC5)cc4)n3)C2)C1=O` (stereo partly drawn) [Compound 50] showed a DC50 of under 5 nM.
The result for `CN1CCN([C@@H]2CCCN(c3cnc(C(N)=O)c(Nc4ccc(C5CCN(C[C@@H]6CCN(c7ccc8c(c7)C(=O)N(C7CCC(=O)NC7=O)C8=O)C6)CC5)cc4)n3)C2)C1=O` (stereo partly drawn) [Compound 52] reads under 5 nM.
The same measure for `CN1CCN([C@@H]2CCCN(c3cnc(C(N)=O)c(Nc4ccc(C5CCN(CC6CN(c7ccc8c(c7)C(=O)N(C7CCC(=O)NC7=O)C8=O)C6)CC5)cc4)n3)C2)C1=O` (stereo partly drawn) [Compound 54]: under 5 nM.
The same measure for `CN1CCN([C@@H]2CCCN(c3cnc(C(N)=O)c(Nc4ccc(N5CCC6(CC5)CCN(c5ccc7c(c5)C(=O)N(C5CCC(=O)NC5=O)C7=O)CC6)cc4)n3)C2)C1=O` (stereo partly drawn) [Compound 55]: under 5 nM; for `CN1CCN([C@@H]2CCCN(c3cnc(C(N)=O)c(Nc4ccc(N5CCC6(CCN(CCCCc7cccc8c7CN(C7CCC(=O)NC7=O)C8=O)CC6)CC5)cc4)n3)C2)C1=O` (stereo partly drawn) [Compound 56]: under 5 nM.
In the case of `CN1CCN([C@@H]2CCCN(c3cnc(C(N)=O)c(Nc4ccc(N5CCC6(CCN(C(=O)CCOCCCc7cccc8c7CN(C7CCC(=O)NC7=O)C8=O)CC6)CC5)cc4)n3)C2)C1=O` (stereo partly drawn) [Compound 57, 3-((4-(9-(3-(3-(2-(2,6-dioxopiperidin-3-yl)-1-oxoisoindolin-4-yl)propoxy)propanoyl)-3,9-diazaspiro[5.5]undecan-3-yl)phenyl)amino)-5-((R)-3-(3-methyl-2-oxoimidazolidin-1-yl)piperidin-1-yl)pyrazine-2-carboxamide], the DC50 was under 5 nM.
Consider `CN1CCN([C@@H]2CCCN(c3cnc(C(N)=O)c(Nc4ccc(C5(C)CCN(c6ccc7c(c6)C(=O)N(C6CCC(=O)NC6=O)C7=O)CC5)cc4)n3)C2)C1=O` (stereo partly drawn) [Compound 58], for which the DC50 lay within 5 to 15 nM.
The same measure for `CN1CCN([C@@H]2CCCN(c3cnc(C(N)=O)c(Nc4ccc(N5CCN(C[C@@H]6CCN(c7ccc8c(c7)C(=O)N(C7CCC(=O)NC7=O)C8=O)C6)CC5)cc4)n3)C2)C1=O` (stereo partly drawn) [Compound 59]: under 5 nM.
Take `CN1CCN([C@@H]2CCCN(c3cnc(C(N)=O)c(Nc4ccc(N5CCN(CC6CN(c7ccc8c(c7)C(=O)N(C7CCC(=O)NC7=O)C8=O)C6)CC5)cc4)n3)C2)C1=O` (stereo partly drawn) [Compound 60]: the DC50 is under 5 nM.
The same measure for `CN1CCN([C@@H]2CCCN(c3cnc(C(N)=O)c(Nc4cccc(NC(=O)CCCN5CCN(c6ccc7c(c6)C(=O)N(C6CCC(=O)NC6=O)C7=O)CC5)c4)n3)C2)C1=O` (stereo partly drawn) [Compound 62]: over 15 nM.
The result for `CN1CCN([C@@H]2CCCN(c3cnc(C(N)=O)c(Nc4cccc(NC(=O)[C@H]5C[C@@H](OCCCc6cccc7c6C(=O)N(C6CCC(=O)NC6=O)C7=O)C5)c4)n3)C2)C1=O` (stereo partly drawn) [Compound 63] reads over 15 nM.
Compound `CN1CCN([C@@H]2CCCN(c3cnc(C(N)=O)c(Nc4ccc(CCCNc5ccc6c(c5)C(=O)N(C5CCC(=O)NC5=O)C6=O)cc4)n3)C2)C1=O` (stereo partly drawn) [Compound 65] yielded a DC50 of over 15 nM.
Turning to `CN1CCN([C@@H]2CCCN(c3cnc(C(N)=O)c(Nc4ccc(C5(C)CCN(C6CC(Nc7cccc8c7C(=O)N(C7CCC(=O)NC7=O)C8=O)C6)CC5)cc4)n3)C2)C1=O` (stereo partly drawn) [Compound 66], the DC50 was under 5 nM.
The same measure for `NC(=O)c1ncc(N2CCCCC2)nc1Nc1ccc(N2CCN(C(=O)CCOCCCc3cccc4c3CN(C3CCC(=O)NC3=O)C4=O)CC2)cc1` (stereo not drawn) [Compound 67]: over 15 nM; for `CN1CCN([C@@H]2CCCN(c3cnc(C(N)=O)c(Nc4ccc(C5CN(CC6CCN(c7ccc8c(=O)n(C9CCC(=O)NC9=O)ccc8c7)CC6)C5)cc4)n3)C2)C1=O` (stereo partly drawn) [Compound 69]: under 5 nM.
The same measure for `CN1CCN([C@@H]2CCCN(c3cnc(C(N)=O)c(Nc4ccc(N5CC6CN(Cc7ccc8c(c7)C(=O)N(C7CCC(=O)NC7=O)C8=O)CC6C5)cc4)n3)C2)C1=O` (stereo partly drawn) [Compound 76]: 5 to 15 nM; for `CN1CCN([C@H]2CCCN(c3cnc(C(N)=O)c(Nc4cnn(C5CCN(C6CCN(c7ccc8c(c7)C(=O)N(C7CCC(=O)NC7=O)C8=O)CC6)CC5)c4)n3)C2)C1=O` (stereo partly drawn) [Compound 77]: under 5 nM.
For `CN1CCN([C@H]2CCCN(c3cnc(C(N)=O)c(Nc4ccc(N5CC6CN(c7ccc8c(c7)C(=O)N(C7CCC(=O)NC7=O)C8=O)CC6C5)cc4)n3)C2)C1=O` (stereo partly drawn) [Compound 79], the 50% degradation concentration (DC50) was over 15 nM.
The result for `CN1CCN([C@H]2CCCN(c3cnc(C(N)=O)c(Nc4ccc(N5CCC6(CCN(c7ccc8c(c7)C(=O)N(C7CCC(=O)NC7=O)C8=O)CC6)CC5)nc4)n3)C2)C1=O` (stereo partly drawn) [Compound 80] reads under 5 nM; that for `CN1CCN([C@H]2CCCN(c3cnc(C(N)=O)c(Nc4ccc(N5CCC6(CC5)CCN(c5ccc7c(c5)C(=O)N(C5CCC(=O)NC5=O)C7=O)CC6)cn4)n3)C2)C1=O` (stereo partly drawn) [Compound 81], over 15 nM.
The result for `CN1CCN([C@@H]2CCCN(c3cnc(C(N)=O)c(Nc4ccc(N5CCN(CC6CN(c7ccc8c(c7)C(=O)N(C7CCC(=O)NC7=O)C8=O)C6)CC5)cc4)n3)C2)C1=O` (stereo partly drawn) [Compound 82] reads under 5 nM.
The same measure for `CN1CCN([C@H]2CCCN(c3cnc(C(N)=O)c(Nc4cnn(C5CCN(CC6CCN(c7ccc8c(c7)C(=O)N(C7CCC(=O)NC7=O)C8=O)CC6)CC5)c4)n3)C2)C1=O` (stereo partly drawn) [Compound 83]: under 5 nM.
In turn, `CN1CCN([C@H]2CCCN(c3cnc(C(N)=O)c(Nc4cnn(C5CCN(CCCc6cccc7c6CN(C6CCC(=O)NC6=O)C7=O)CC5)c4)n3)C2)C1=O` (stereo partly drawn) [Compound 84] returned a DC50 of over 15 nM.
In turn, `CN1CCN([C@@H]2CCCN(c3cnc(C(N)=O)c(Nc4ccc(C5CN(CC6CN(c7ccc8c(c7)C(=O)N(C7CCC(=O)NC7=O)C8=O)C6)C5)cc4)n3)C2)C1=O` (stereo partly drawn) [Compound 85] yielded a DC50 of under 5 nM.
The result for `CN1CCN([C@@H]2CCCN(c3cnc(C(N)=O)c(Nc4ccc(C5CCN(C6CN(Cc7ccc8c(c7)CN(C7CCC(=O)NC7=O)C8=O)C6)CC5)cc4)n3)C2)C1=O` (stereo partly drawn) [Compound 86] reads under 5 nM; that for `CN1CCN([C@H]2CCCN(c3cnc(C(N)=O)c(Nc4ccc(C5CCN(C[C@H]6CCCN6c6ccc7c(c6)C(=O)N(C6CCC(=O)NC6=O)C7=O)CC5)cc4)n3)C2)C1=O` (stereo partly drawn) [Compound 87], under 5 nM.
`CN1CCN([C@H]2CCCN(c3cnc(C(N)=O)c(Nc4ccc(N5CCN(CCCCc6cccc7c6CN(C6CCC(=O)NC6=O)C7=O)CC5)cn4)n3)C2)C1=O` (stereo partly drawn) [Compound 88]: the DC50 is over 15 nM.
The result for `CN1CCN([C@@H]2CCCN(c3cnc(C(N)=O)c(Nc4ccc(N5CCN(C[C@H]6CCN(c7ccc8c(c7)C(=O)N(C7CCC(=O)NC7=O)C8=O)C6)CC5)cn4)n3)C2)C1=O` (stereo partly drawn) [Compound 89] reads 5 to 15 nM; that for `CN1CCN([C@H]2CCCN(c3cnc(C(N)=O)c(Nc4ccc(C(=O)N5CCN(Cc6ccc7c(c6)C(=O)N(C6CCC(=O)NC6=O)C7=O)CC5)cc4)n3)C2)C1=O` (stereo partly drawn) [Compound 90], 5 to 15 nM.
The result for `CN1CCN([C@@H]2CCCN(c3cnc(C(N)=O)c(Nc4ccc(N5CC6CN(CC7CN(c8ccc9c(c8)C(=O)N(C8CCC(=O)NC8=O)C9=O)C7)CC6C5)cc4)n3)C2)C1=O` (stereo partly drawn) [Compound 91] reads under 5 nM; that for `CN1CCN([C@@H]2CCCN(c3cnc(C(N)=O)c(Nc4ccc(N5CCC6(CC5)CN(Cc5ccc7c(c5)C(=O)N(C5CCC(=O)NC5=O)C7=O)C6)cc4)n3)C2)C1=O` (stereo partly drawn) [Compound 93], under 5 nM.
The result for `CN1CCN([C@H]2CCCN(c3cnc(C(N)=O)c(Nc4ccc(N5CCCC6(CN(Cc7ccc8c(c7)C(=O)N(C7CCC(=O)NC7=O)C8=O)C6)C5)cc4)n3)C2)C1=O` (stereo partly drawn) [Compound 94] reads under 5 nM.
`CN1CCN([C@@H]2CCCN(c3cnc(C(N)=O)c(Nc4ccc(N5CC[C@@H]6CCN(Cc7ccc8c(c7)C(=O)N(N7CCC(=O)NC7=O)C8=O)C[C@@H]6C5)cc4)n3)C2)C1=O` [Compound 95] yielded a half-maximal degradation concentration (DC50) of 5 to 15 nM.
The same measure for `CN1CCN([C@@H]2CCCN(c3cnc(C(N)=O)c(Nc4ccc(N5CCCC6(C5)CN(c5cccc7c5C(=O)N(C5CCC(=O)NC5=O)C7=O)C6)cc4)n3)C2)C1=O` (stereo partly drawn) [Compound 96]: over 15 nM; for `CN1CCN([C@H]2CCCN(c3cnc(C(N)=O)c(Nc4ccc(N5CCC6(CC5)CN(c5cccc7c5C(=O)N(C5CCC(=O)NC5=O)C7=O)C6)cc4)n3)C2)C1=O` (stereo partly drawn) [Compound 97]: over 15 nM.
The same measure for `CN1CCN([C@H]2CCCN(c3cnc(C(N)=O)c(Nc4ccc(N5CCN(CC#Cc6ccc7c(c6)C(=O)N(C6CCC(=O)NC6=O)C7)CC5)cc4)n3)C2)C1=O` (stereo partly drawn) [Compound 98]: under 5 nM.
The result for `CN1CCN([C@@H]2CCCN(c3cnc(C(N)=O)c(Nc4ccc(N5CCN(Cc6ccc7c(c6)C(=O)N(C6CCC(=O)NC6=O)C7=O)CC5)cc4)n3)C2)C1=O` (stereo partly drawn) [Compound 100] reads over 15 nM.
Regarding `CN1CCN([C@@H]2CCCN(c3cnc(C(N)=O)c(Nc4ccc(N5CCN(C6CN(Cc7ccc8c(c7)C(=O)N(C7CCC(=O)NC7=O)C8=O)C6)CC5)cc4)n3)C2)C1=O` (stereo partly drawn) [Compound 101], the DC50 was under 5 nM.
Consider `CN1CCN([C@H]2CCCN(c3cnc(C(N)=O)c(Nc4ccc(C5(C)CCN([C@H]6C[C@@H](Nc7cccc8c7C(=O)N(C7CCC(=O)NC7=O)C8=O)C6)CC5)cc4)n3)C2)C1=O` (stereo partly drawn) [Compound 102], for which the DC50 was under 5 nM.
